# Test results as given in ChEMBL document CHEMBL5137095, “N-Benzyl Benzamide Derivatives as Selective Sub-Nanomolar Butyrylcholinesterase Inhibitors for Possible Treatment in Advanced Alzheimer's Disease” (J Med Chem, 2022).
# Assays:
# [1] = Inhibition of human BChE assessed as inhibition constant
# [2] = Acute toxicity in ICR mouse assessed as effect on consumption of water and food at 1000 mg/kg, po measured after 14 days; format: organism-based; conditions: in vivo, 336 h, time 14 day
# [3] = Permeability of compound incubated for 18 hrs by PAMPA-BBB assay; format: ADME; conditions: read-out: permeability
# [4] = Acute toxicity in ICR mouse assessed as abnormal behavior at 1000 mg/kg, po measured after 4 hrs; format: organism-based; conditions: in vivo
# Cholinesterase [5] = target: T1, Cholinesterase (Homo sapiens, UniProt P06276); assay: Inhibition of human BChE using acetylthiocholine iodide or butyrylthiocholine iodide as substrate preincubated for 5 mins followed by substrate addition by Ellman's method
# [6] = Acute toxicity in ICR mouse assessed as increase in body weight at 1000 mg/kg, po measured after 14 days; format: organism-based; conditions: in vivo, 336 h, time 14 day
# Cholinesterase [7] = target: Cholinesterase (Equus caballus, UniProt P81908); assay: Inhibition of horse serum BChE using acetylthiocholine iodide or butyrylthiocholine iodide as substrate preincubated for 5 mins followed by substrate addition by Ellman's method
# [8] = n-octanol-water partition coefficient, log P of the compound by HPLC analysis; format: physicochemical
# Cholinesterase [9] = target: T1, Cholinesterase; assay: Inhibition of human BChE assessed as inhibition constant
# Cholinesterase [10] = target: T1, Cholinesterase; assay: Binding affinity to human BChE assessed as dissociation constant by surface plasmon resonance assay
# PC-12 [11] = assay: Cytotoxicity against rat PC-12 cells assessed as reduction in cell viability at 10 uM by MTT assay; format: toxicity, cell-based; conditions: pc-12, 10 µM
# [12] = Cytotoxicity against rat PC-12 cells assessed as cell survival rate at 10 uM by MTT assay; format: toxicity, cell-based; conditions: read-out: Activity
# BV-2 = assay: Cytotoxicity against mouse BV-2 cells assessed as reduction in cell viability at 10 uM by MTT assay; format: toxicity, cell-based; conditions: bv-2, 10 µM
# SH-SY5Y [13] = assay: Cytotoxicity against human SH-SY5Y cells assessed as reduction in cell viability at 10 uM by MTT assay; format: toxicity, cell-based
# [14] = Cytotoxicity against human SH-SY5Y cells assessed as cell survival rate at 10 uM by MTT assay; format: toxicity, cell-based; conditions: read-out: Activity
# PC-12 [15] = assay: Neuroprotective activity against H2O2-induced cell damage in rat PC-12 cells assessed as survival rate at 5 to 10 uM pretreated for 2 hrs followed by H2O2 addition and measured after 24 hrs by MTT assay; format: functional; conditions: dose 5-10 µM, time 26 hrs
# [16] = Cytotoxicity against mouse BV-2 cells assessed as cell survival rate at 10 uM by MTT assay; format: toxicity, cell-based; conditions: read-out: Activity
# HT-22 = assay: Cytotoxicity against mouse HT-22 cells assessed as reduction in cell viability at 10 uM by MTT assay; format: toxicity, cell-based; conditions: ht-22, 10 µM
# [17] = Cytotoxicity against mouse HT-22 cells assessed as cell survival rate at 10 uM by MTT assay; format: toxicity, cell-based; conditions: read-out: Activity
# SH-SY5Y [18] = assay: Neuroprotective activity against GA-induced cell damage in human SH-SY5Y cells assessed as survival rate at 5 uM pretreated for 2 hrs followed by GA addition and measured after 24 hrs by MTT assay; format: functional
# T1 sequence (P06276 whole entry): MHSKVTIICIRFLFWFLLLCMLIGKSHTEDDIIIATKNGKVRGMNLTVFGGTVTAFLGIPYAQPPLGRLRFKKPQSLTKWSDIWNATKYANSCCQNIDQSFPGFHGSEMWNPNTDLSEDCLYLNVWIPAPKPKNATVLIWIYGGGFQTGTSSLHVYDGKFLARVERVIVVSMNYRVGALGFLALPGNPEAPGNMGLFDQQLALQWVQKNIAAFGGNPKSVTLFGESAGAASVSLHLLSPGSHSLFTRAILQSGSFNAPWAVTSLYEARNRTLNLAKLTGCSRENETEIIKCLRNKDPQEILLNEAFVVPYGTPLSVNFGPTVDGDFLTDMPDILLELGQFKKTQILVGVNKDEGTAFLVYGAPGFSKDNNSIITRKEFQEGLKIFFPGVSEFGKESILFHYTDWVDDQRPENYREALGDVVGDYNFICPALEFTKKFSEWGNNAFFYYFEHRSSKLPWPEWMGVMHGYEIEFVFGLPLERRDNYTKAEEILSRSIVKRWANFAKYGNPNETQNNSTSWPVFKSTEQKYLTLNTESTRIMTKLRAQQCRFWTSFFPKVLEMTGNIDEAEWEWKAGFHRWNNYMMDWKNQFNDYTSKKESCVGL
# Sequence of Cholinesterase (Equus caballus, UniProt P81908) (P81908 whole entry): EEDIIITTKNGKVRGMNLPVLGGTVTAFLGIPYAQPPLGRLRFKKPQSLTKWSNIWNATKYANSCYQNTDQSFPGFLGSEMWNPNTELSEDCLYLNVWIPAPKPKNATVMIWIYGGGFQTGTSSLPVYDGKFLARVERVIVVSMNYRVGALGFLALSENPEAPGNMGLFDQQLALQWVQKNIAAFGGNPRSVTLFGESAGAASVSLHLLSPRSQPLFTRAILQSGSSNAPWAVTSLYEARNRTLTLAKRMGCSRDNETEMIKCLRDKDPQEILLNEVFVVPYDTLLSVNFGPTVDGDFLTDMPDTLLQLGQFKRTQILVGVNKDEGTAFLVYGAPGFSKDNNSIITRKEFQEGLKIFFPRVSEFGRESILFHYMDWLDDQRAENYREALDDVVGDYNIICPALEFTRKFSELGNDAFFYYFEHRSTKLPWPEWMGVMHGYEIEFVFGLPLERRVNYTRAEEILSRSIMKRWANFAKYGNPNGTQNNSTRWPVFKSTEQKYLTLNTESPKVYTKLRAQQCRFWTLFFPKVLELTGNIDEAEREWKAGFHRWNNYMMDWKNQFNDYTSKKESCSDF
smiles,measurement,setting,value
CCN(CC)C(C)CN1c2ccccc2Sc2ccccc21 (stereo unspecified) [ETHOPROPAZINE],Ki,[1],20 nM
CCN(CC)Cc1ccccc1CNC(=O)c1cc(C)cc(NC(=O)c2ccc(F)cc2)c1,Activity,[2],Non-Toxic
same,Papp at 18 h,[3],9.17 ×10⁻⁶ cm/s
same,Activity,[4],Non-Toxic
same,IC50,Cholinesterase [5],0.039 nM
same,Activity,[6],Non-Toxic
same,IC50,Cholinesterase [7],0.021 nM
same,logP,[8],1.26
same,Ki,Cholinesterase [9],0.094 nM
same,Kd,Cholinesterase [10],0.064 nM
CCN(CC)Cc1ccccc1CNC(=O)c1ccc(Br)c(NC(=O)c2ccc(F)cc2)c1,IC50,Cholinesterase [5],2.58 nM
same,IC50,Cholinesterase [7],2.42 nM
CCN(CC)Cc1ccccc1CNC(=O)c1cccc(NC(=O)C2CCCCC2)c1,IC50,Cholinesterase [5],3.71 nM
same,IC50,Cholinesterase [7],7.9 nM
CCCN(CCC)Cc1ccccc1CNC(=O)c1cccc(NC(=O)c2cccs2)c1,Activity,PC-12 [11],Non-Toxic
same,viability at 10 µM,[12],> 70%
same,Activity,BV-2,Non-Toxic
same,Papp at 18 h,[3],8.69 ×10⁻⁶ cm/s
same,IC50,Cholinesterase [5],0.67 nM
same,logP,[8],1.02
same,Activity,SH-SY5Y [13],Non-Toxic
same,viability at 10 µM,[14],> 70%
same,Activity,PC-12 [15],61.7%
same,viability at 10 µM,[16],> 70%
same,Activity,HT-22,Non-Toxic
same,viability at 10 µM,[17],> 70%
Cc1ccc2c(c1)sc(-c1ccc(N(C)C)cc1)[n+]2C [THIOFLAVIN T],Ki,Cholinesterase [9],800 nM
CCN(CC)Cc1ccccc1CNC(=O)c1cccc(NC(=O)c2ccccc2)c1,IC50,Cholinesterase [7],0.96 nM
CCN(CC)Cc1ccccc1CNC(=O)c1cccc(OC(=O)c2cccs2)c1,IC50,Cholinesterase [5],132 nM
same,IC50,Cholinesterase [7],158 nM
CCN(CC)Cc1ccccc1CNC(=O)c1cc(NC(=O)c2ccc(F)cc2)ccc1C,Activity,PC-12 [11],Non-Toxic
same,viability at 10 µM,[12],> 70%
same,Activity,BV-2,Non-Toxic
same,IC50,Cholinesterase [5],2.71 nM
same,IC50,Cholinesterase [7],1.35 nM
same,Activity,SH-SY5Y [13],Non-Toxic
same,viability at 10 µM,[14],> 70%
same,viability at 10 µM,[16],> 70%
same,Activity,HT-22,Non-Toxic
same,viability at 10 µM,[17],> 70%
CCN(CC)Cc1ccccc1CNC(=O)c1cccc(NS(=O)(=O)c2cccs2)c1,IC50,Cholinesterase [5],2610 nM
same,IC50,Cholinesterase [7],350 nM
CCN(CC)Cc1ccccc1CNC(=O)c1cc(NC(=O)c2ccc(F)cc2)cc([N+](=O)[O-])c1,Activity,PC-12 [11],Non-Toxic
same,viability at 10 µM,[12],> 70%
same,Activity,BV-2,Non-Toxic
same,IC50,Cholinesterase [5],1.04 nM
same,IC50,Cholinesterase [7],1.27 nM
same,Activity,SH-SY5Y [13],Non-Toxic
same,viability at 10 µM,[14],> 70%
same,viability at 10 µM,[16],> 70%
same,Activity,HT-22,Non-Toxic
same,viability at 10 µM,[17],> 70%
CCN(CC)Cc1ccccc1CNC(=O)c1cc(Br)cc(NC(=O)c2ccc(F)cc2)c1,Papp at 18 h,[3],6.93 ×10⁻⁶ cm/s
same,IC50,Cholinesterase [5],0.58 nM
same,IC50,Cholinesterase [7],0.42 nM
same,logP,[8],2.04
same,Activity,SH-SY5Y [18],70%
CCN(CC)Cc1ccccc1CNC(=O)c1cccc(NC(=O)c2cccc(F)c2)c1,IC50,Cholinesterase [5],3.11 nM
CCN(CC)Cc1ccccc1CNC(=O)c1ccc(NC(=O)c2ccc(F)cc2)cc1,IC50,Cholinesterase [5],5.29 nM
same,IC50,Cholinesterase [7],4.99 nM
CCCN(CCC)Cc1ccccc1NC(=O)c1cccc(NC(=O)c2cccs2)c1,IC50,Cholinesterase [5],870 nM
same,IC50,Cholinesterase [7],120 nM
CCN(CC)Cc1ccccc1CNC(=O)c1cc(NC(=O)c2ccc(F)cc2)cc(OC)c1,IC50,Cholinesterase [5],136 nM
same,IC50,Cholinesterase [7],0.82 nM
CCN(CC)Cc1ccccc1CNC(=O)c1cccc(NC(=O)c2ccc(F)cc2)c1Br,IC50,Cholinesterase [5],1840 nM
same,IC50,Cholinesterase [7],14.4 nM
CCN(CC)Cc1ccccc1CNC(=O)c1cccc(NC(=O)c2cccs2)c1,Activity,PC-12 [11],Non-Toxic
same,viability at 10 µM,[12],> 70%
same,Activity,BV-2,Non-Toxic
same,Papp at 18 h,[3],19 ×10⁻⁶ cm/s
same,IC50,Cholinesterase [5],0.35 nM
same,logP,[8],2.11
same,Activity,SH-SY5Y [13],Non-Toxic
same,viability at 10 µM,[14],> 70%
same,viability at 10 µM,[16],> 70%
same,Activity,HT-22,Non-Toxic
same,viability at 10 µM,[17],> 70%
CCN(CC)Cc1ccccc1CNC(=O)c1cccc(NC(=O)c2ccc(F)cc2)c1C,Papp at 18 h,[3],11.4 ×10⁻⁶ cm/s
same,IC50,Cholinesterase [5],0.26 nM
same,IC50,Cholinesterase [7],0.14 nM
same,logP,[8],1.02
CCN(CC)Cc1ccccc1CNC(=O)c1cccc(NC(=O)c2ccc(I)cc2)c1,Papp at 18 h,[3],10.1 ×10⁻⁶ cm/s
same,IC50,Cholinesterase [5],0.11 nM
same,IC50,Cholinesterase [7],0.34 nM
Cc1ccccc1NC(=O)c1cccc(NC(=O)c2cccs2)c1,IC50,Cholinesterase [5],11100 nM
same,IC50,Cholinesterase [7],12900 nM
